Results published in patent publication US20240425464A1, “Substituted Monohydrazides as Potent Antifungal Agents” (University of Kentucky Research Foundation, priority 2023, published 2024).
In brackets after ≈: the same amount, converted by molar mass. Like-named read-outs stand apart in the source and are kept apart here.

Columns and labels:
Experiment in all cases: MIC determination by in vitro antifungal assay
Assay type in all cases: cell-based, Candida auris
C. auris AR Bank #381 = details: C. auris AR Bank #381
Outline: (§1)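 Isolates from the CDC antimicrobial resistance bank were tested in pH 7.0 MOPS-buffered RPMI 1640 at 35° C, using a 1:100 dilution of a suspension standardised to OD600 0.12 (˜1×10^6 CFU/mL).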

C. auris AR Bank #382 = details: C. auris AR Bank #382
Outline: as §1

C. auris AR Bank #383 = details: C. auris AR Bank #383
Outline: as §1

C. auris AR Bank #385 = details: C. auris AR Bank #385
Outline: as §1

C. auris AR Bank #386 = details: C. auris AR Bank #386
Outline: as §1

C. auris AR Bank #387 = details: C. auris AR Bank #387
Outline: as §1

C. auris AR Bank #388 = details: C. auris AR Bank #388
Outline: as §1

C. auris AR Bank #389 = details: C. auris AR Bank #389
Outline: as §1

[1] = Candidozyma auris, read-out: MIC

| SMILES | MIC (C. auris AR Bank #381) [μg/mL^−1] | MIC (C. auris AR Bank #382) [μg/mL^−1] | MIC (C. auris AR Bank #383) [μg/mL^−1] | MIC (C. auris AR Bank #385) [μg/mL^−1] | MIC (C. auris AR Bank #386) [μg/mL^−1] | MIC (C. auris AR Bank #387) [μg/mL^−1] | MIC (C. auris AR Bank #388) [μg/mL^−1] | MIC (C. auris AR Bank #389) [μg/mL^−1] | MIC (C. auris AR Bank #381; [1]) [µg/mL] | MIC (C. auris AR Bank #382; [1]) [µg/mL] | MIC (C. auris AR Bank #383; [1]) [µg/mL] | MIC (C. auris AR Bank #385; [1]) [µg/mL] | MIC (C. auris AR Bank #386; [1]) [µg/mL] | MIC (C. auris AR Bank #387; [1]) [µg/mL] | MIC (C. auris AR Bank #388; [1]) [µg/mL] | MIC (C. auris AR Bank #389; [1]) [µg/mL] |
| --- | --- | --- | --- | --- | --- | --- | --- | --- | --- | --- | --- | --- | --- | --- | --- | --- |
| O=C(NNc1ccc(Cl)cc1)c1cnccn1 [Compound 9e] | 7.8 | 13.6 | 3.9 | 31.3 | 7.8 | 13.6 | 7.8 | 7.8 |  |  |  |  |  |  |  |  |
| COc1ccc(NNC(=O)c2cnccn2)cc1 [Compound 9f] |  |  |  |  |  |  |  |  | 1.95 (≈ 7.98 µM) | 0.98 (≈ 4.01 µM) | 0.98 (≈ 4.01 µM) | 0.98 (≈ 4.01 µM) | 0.49 (≈ 2.01 µM) | 1.95 (≈ 7.98 µM) | 0.98 (≈ 4.01 µM) | 0.98 (≈ 4.01 µM) |
| O=C(NNc1ccc(F)cc1F)c1cnccn1 [Compound 9g] |  |  |  |  |  |  |  |  | 3.9 (≈ 15.6 µM) | 1.95 (≈ 7.79 µM) | 0.98 (≈ 3.92 µM) | 0.98 (≈ 3.92 µM) | 0.49 (≈ 1.96 µM) | 0.49 (≈ 1.96 µM) | 0.49 (≈ 1.96 µM) | 0.49 (≈ 1.96 µM) |
